The source of these data is patent US20240343704A1, “HALO-SUBSTITUTED AMINO PYRIDINE COMPOUNDS AS INHIBITORS OF THE HAEMATOPOIETIC PROGENITOR KINASE 1 (HPK1)” (priority 2021, published 2024).

This assay has as its target T1, Recombinant (1-346) HPK1 (h) (Homo sapiens, UniProt Q92918).
T1 construct: Recombinant (1-346) HPK1 (h) is incubated with 8 mM MOPS pH 7.0
T1 sequence (Q92918 1-346): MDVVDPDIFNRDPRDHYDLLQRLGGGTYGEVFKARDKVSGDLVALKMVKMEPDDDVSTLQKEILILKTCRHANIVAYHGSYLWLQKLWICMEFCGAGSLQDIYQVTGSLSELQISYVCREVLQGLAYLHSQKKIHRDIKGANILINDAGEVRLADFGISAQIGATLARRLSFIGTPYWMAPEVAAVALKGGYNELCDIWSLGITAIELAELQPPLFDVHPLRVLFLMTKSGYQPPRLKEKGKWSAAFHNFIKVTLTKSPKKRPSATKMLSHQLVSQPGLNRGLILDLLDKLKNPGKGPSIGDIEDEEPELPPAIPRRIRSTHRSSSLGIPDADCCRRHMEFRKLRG
In words: HPK1 Human STE Kinase Enzymatic Radiometric Assay. Type of assay: biochemical. The settings on record: read-out: HPK1 IC50 nM Range*. Here is the method: A stock solution of 10 mM of test compound is prepared in DMSO. The compound plate was prepared by 3-fold and 9-point serial dilutions. […] The reaction is initiated by The addition of the Mg/ATP mix. After incubation for 40 minutes at RT, the reaction is stopped by the addition of phosphoric acid to a concentration of 0.5%.
In general, IC50 refers to the midpoint of a concentration-inhibition curve. Regarding `Cc1nc2cc(-c3cc(-c4ccc(C5CCOCC5)c(CN(C)C)c4)c(F)nc3N)cc(F)c2c(=O)[nH]1` [I-490, 7-(2-amino-5-(3-((dimethylamino)methyl)-4-(tetrahydro-2H-pyran-4-yl)phenyl)-6-fluoropyridin-3-yl)-5-fluoro-2-methylquinazolin-4(3H)-one], the IC50 was 11 to 100 nM.

Turning to `Nc1nc(F)c(-c2ccc(N3CCOCC3)c(CN3CCCC3)c2)cc1-c1ccc2c(c1)CCNC2=O` [I-491, 6-(2-amino-6-fluoro-5-(4-morpholino-3-(pyrrolidin-1-ylmethyl)phenyl)pyridin-3-yl)-3,4-dihydroisoquinolin-1(2H)-one], the IC50 is 11 to 100 nM. As for `Nc1nc(F)c(-c2ccc(N3CCOCC3)c(CN3CCCC3)c2)cc1-c1cc2c(cc1F)C(=O)NCC2` [I-492, 6-(2-amino-6-fluoro-5-(4-morpholino-3-(pyrrolidin-1-ylmethyl)phenyl)pyridin-3-yl)-7-fluoro-3,4-dihydroisoquinolin-1(2H)-one], the figure is 11 to 100 nM. As for `CN(C)Cc1cc(-c2cc(-c3ccc4c(c3)CCNC4=O)c(N)nc2F)ccc1N1CCS(=O)(=O)CC1` [I-493, 6-(2-amino-5-(3-((dimethylamino)methyl)-4-(1,1-dioxidothiomorpholino)phenyl)-6-fluoropyridin-3-yl)-3,4-dihydroisoquinolin-1(2H)-one], the figure is 11 to 100 nM; as for `CN(C)Cc1cc(-c2cc(-c3cc4c(cc3F)C(=O)NCC4)c(N)nc2F)ccc1N1CCN(C2CC2)CC1` [I-494, 6-(2-amino-5-(4-(4-cyclopropylpiperazin-1-yl)-3-((dimethylamino)methyl)phenyl)-6-fluoropyridin-3-yl)-7-fluoro-3,4-dihydroisoquinolin-1(2H)-one], 11 to 100 nM.

In the case of `CN(C)Cc1cc(-c2cc(-c3ccc4c(c3)CCNC4=O)c(N)nc2F)ccc1N1CCN(C2CC2)CC1` [I-495, 6-(2-amino-5-(4-(4-cyclopropylpiperazin-1-yl)-3-((dimethylamino)methyl)phenyl)-6-fluoropyridin-3-yl)-3,4-dihydroisoquinolin-1(2H)-one], the IC50 is 11 to 100 nM. The figure for `Nc1nc(F)c(-c2ccc(N3CCOCC3)c(CN3CCOCC3)c2)cc1-c1ccc2c(c1)CCNC2=O` [I-496, 6-(2-amino-6-fluoro-5-(4-morpholino-3-(morpholinomethyl)phenyl)pyridin-3-yl)-3,4-dihydroisoquinolin-1(2H)-one] is 11 to 100 nM; for `Nc1nc(F)c(-c2ccc(N3CCOCC3)c(CN3CCOCC3)c2)cc1-c1cc2c(cc1F)C(=O)NCC2` [I-497, 6-(2-amino-6-fluoro-5-(4-morpholino-3-(morpholinomethyl)phenyl)pyridin-3-yl)-7-fluoro-3,4-dihydroisoquinolin-1(2H)-one] it is 11 to 100 nM; for `CN(C)Cc1cc(-c2cc(-c3cc4c(cc3F)C(=O)NCC4)c(N)nc2F)ccc1N1CCS(=O)(=O)CC1` [I-498, 6-(2-amino-5-(3-((dimethylamino)methyl)-4-(1,1-dioxidothiomorpholino)phenyl)-6-fluoropyridin-3-yl)-7-fluoro-3,4-dihydroisoquinolin-1(2H)-one] it is 11 to 100 nM. Regarding `C[C@@H]1CN(c2ccc(-c3cc(-c4ccc5c(=O)[nH]cc(F)c5c4)c(N)nc3F)cc2)C[C@H](C)N1C` [I-499, 6-(2-amino-6-fluoro-5-(4-((3R,5S)-3,4,5-trimethylpiperazin-1-yl)phenyl)pyridin-3-yl)-4-fluoroisoquinolin-1(2H)-one], the IC50 is 0.1 to 10 nM. The figure for `Cc1nc2cc(-c3cc(-c4ccc(N5C[C@@H](C)N(C)[C@@H](C)C5)cc4)c(F)nc3N)ccc2c(=O)[nH]1` [I-500, 7-(2-amino-6-fluoro-5-(4-((3R,5S)-3,4,5-trimethylpiperazin-1-yl)phenyl)pyridin-3-yl)-2-methylquinazolin-4(3H)-one] is 11 to 100 nM. For `Cc1nc2cc(-c3cc(-c4ccc(N5C[C@@H](C)N(C)[C@@H](C)C5)cc4)c(F)nc3N)cc(F)c2c(=O)[nH]1` [I-501, 7-(2-amino-6-fluoro-5-(4-((3R,5S)-3,4,5-trimethylpiperazin-1-yl)phenyl)pyridin-3-yl)-5-fluoro-2-methylquinazolin-4(3H)-one], the IC50 is 11 to 100 nM. As for `Cc1c[nH]c(=O)c2ccc(-c3cc(-c4ccc(N5CCOCC5)c(CN(C)C)c4)c(F)nc3N)cc12` [I-502, 6-(2-amino-5-(3-((dimethylamino)methyl)-4-morpholinophenyl)-6-fluoropyridin-3-yl)-4-methylisoquinolin-1(2H)-one], the figure is 0.1 to 10 nM. With `Cc1cc2cc(-c3cc(-c4ccc(C5CCOCC5)c(CN(C)C)c4)c(F)nc3N)cc(F)c2c(=O)[nH]1` [I-504, 6-(2-amino-5-(3-((dimethylamino)methyl)-4-(tetrahydro-2H-pyran-4-yl)phenyl)-6-fluoropyridin-3-yl)-8-fluoro-3-methylisoquinolin-1(2H)-one], the IC50 lay within 11 to 100 nM. As for `Cc1cc2cc(-c3cc(-c4ccc(N5CCOCC5)c(CN(C)C)c4)c(F)nc3N)cc(F)c2c(=O)[nH]1` [I-505, 6-(2-amino-5-(3-((dimethylamino)methyl)-4-morpholinophenyl)-6-fluoropyridin-3-yl)-8-fluoro-3-methylisoquinolin-1(2H)-one], the figure is 11 to 100 nM; as for `CN(C)Cc1cc(-c2cc(-c3ccc4c(c3)CCNC4=O)c(N)nc2F)ccc1OCC1CC1` [I-506, 6-(2-amino-5-(4-(cyclopropylmethoxy)-3-((dimethylamino)methyl)phenyl)-6-fluoropyridin-3-yl)-3,4-dihydroisoquinolin-1(2H)-one], 11 to 100 nM; as for `CN(C)Cc1cc(-c2cc(-c3cc4c(cc3F)C(=O)NCC4)c(N)nc2F)ccc1OCC1CC1` [I-507, 6-(2-amino-5-(4-(cyclopropylmethoxy)-3-((dimethylamino)methyl)phenyl)-6-fluoropyridin-3-yl)-7-fluoro-3,4-dihydroisoquinolin-1(2H)-one], 11 to 100 nM. For the compound `COC1CCN(Cc2cc(-c3cc(-c4ccc5c(c4)CCNC5=O)c(N)nc3F)ccc2OCC2CC2)CC1` [I-508, 6-(2-amino-5-(4-(cyclopropylmethoxy)-3-((4-methoxypiperidin-1-yl)methyl)phenyl)-6-fluoropyridin-3-yl)-3,4-dihydroisoquinolin-1(2H)-one], the IC50 is 11 to 100 nM.

For the compound `COC1CCN(Cc2cc(-c3cc(-c4cc5c(cc4F)C(=O)NCC5)c(N)nc3F)ccc2OCC2CC2)CC1` [I-509, 6-(2-amino-5-(4-(cyclopropylmethoxy)-3-((4-methoxypiperidin-1-yl)methyl)phenyl)-6-fluoropyridin-3-yl)-7-fluoro-3,4-dihydroisoquinolin-1(2H)-one], the IC50 is 11 to 100 nM.

On to `COC1CCN(Cc2cc(-c3cc(-c4ccc5c(c4)CCNC5=O)c(N)nc3F)ccc2N2CCOCC2)CC1` [I-510, 6-(2-amino-6-fluoro-5-(3-((4-methoxypiperidin-1-yl)methyl)-4-morpholinophenyl)pyridin-3-yl)-3,4-dihydroisoquinolin-1(2H)-one], for which the IC50 fell in the range of 11 to 100 nM. As for `COC1CCN(Cc2cc(-c3cc(-c4cc5c(cc4F)C(=O)NCC5)c(N)nc3F)ccc2N2CCOCC2)CC1` [I-511, 6-(2-amino-6-fluoro-5-(3-((4-methoxypiperidin-1-yl)methyl)-4-morpholinophenyl)pyridin-3-yl)-7-fluoro-3,4-dihydroisoquinolin-1(2H)-one], the figure is 11 to 100 nM. The figure for `COC1CCN(Cc2cc(-c3cc(-c4ccc5c(c4)CCNC5=O)c(N)nc3F)ccc2N2CCSCC2)CC1` [I-512, 6-(2-amino-6-fluoro-5-(3-((4-methoxypiperidin-1-yl)methyl)-4-thiomorpholinophenyl)pyridin-3-yl)-3,4-dihydroisoquinolin-1(2H)-one] is 11 to 100 nM. As for `COC1CCN(Cc2cc(-c3cc(-c4cc5c(cc4F)C(=O)NCC5)c(N)nc3F)ccc2N2CCSCC2)CC1` [I-513, 6-(2-amino-6-fluoro-5-(3-((4-methoxypiperidin-1-yl)methyl)-4-thiomorpholinophenyl)pyridin-3-yl)-7-fluoro-3,4-dihydroisoquinolin-1(2H)-one], the figure is 11 to 100 nM; as for `Nc1nc(F)c(-c2ccc(C3=CCOCC3)cc2C=O)cc1-c1cc2c(cc1F)C(=O)NCC2` [I-514, 2-(6-amino-2-fluoro-5-(7-fluoro-1-oxo-1,2,3,4-tetrahydroisoquinolin-6-yl)pyridin-3-yl)-5-(3,6-dihydro-2H-pyran-4-yl)benzaldehyde], 101 to 1000 nM. As for `Cc1[nH]c(=O)c2ccc(-c3cc(-c4ccc(N5CCOCC5)c(CN(C)C)c4)c(F)nc3N)cc2c1F` [I-515, 6-(2-amino-5-(3-((dimethylamino)methyl)-4-morpholinophenyl)-6-fluoropyridin-3-yl)-4-fluoro-3-methylisoquinolin-1(2H)-one], the IC50 fell in the range of 11 to 100 nM. As for `COc1ccc(-c2cc(-c3ccc4c(c3)CCNC4=O)c(N)nc2F)cc1CN1CC(OC)C1` [I-516, 6-(2-amino-6-fluoro-5-(4-methoxy-3-((3-methoxyazetidin-1-yl)methyl)phenyl)pyridin-3-yl)-3,4-dihydroisoquinolin-1(2H)-one], the figure is 11 to 100 nM; as for `COc1ccc(-c2cc(-c3cc4c(cc3F)C(=O)NCC4)c(N)nc2F)cc1CN1CC(OC)C1` [I-517, 6-(2-amino-6-fluoro-5-(4-methoxy-3-((3-methoxyazetidin-1-yl)methyl)phenyl)pyridin-3-yl)-7-fluoro-3,4-dihydroisoquinolin-1(2H)-one], 11 to 100 nM.
